≈ marks a conversion by molar mass, not a printed value.
How the values were obtained:
[1] = test system: Mycobacterium tuberculosis; assay: Antimycobacterial activity against Mycobacterium tuberculosis Erdman ATCC 35801 by broth dilution method; type: functional
[2] = test system: Mycobacterium tuberculosis; assay: Antimycobacterial activity against Mycobacterium tuberculosis clinical isolate 1889 by broth dilution method; type: functional
[3] = test system: Mycobacterium tuberculosis; assay: Potency index, ratio of isoniazid MIC to compound MIC for Mycobacterium tuberculosis clinical isolate 35829; type: functional
[4] = test system: Mycobacterium tuberculosis; assay: Potency index, ratio of isoniazid MIC to compound MIC for Mycobacterium tuberculosis clinical isolate 1889; type: functional
[5] = test system: Mycobacterium tuberculosis; assay: Antimycobacterial activity against Mycobacterium tuberculosis clinical isolate 35829 by broth dilution method; type: functional
[6] = test system: Mycobacterium tuberculosis; assay: Potency index, ratio of isoniazid MIC to compound MIC for Mycobacterium tuberculosis clinical isolate 303; type: functional
[7] = test system: Mycobacterium tuberculosis; assay: Antimycobacterial activity against Mycobacterium tuberculosis clinical isolate 303 by broth dilution method; type: functional
[8] = test system: Mycobacterium tuberculosis; assay: Antimycobacterial activity against Mycobacterium tuberculosis infected in C57BL/6 mouse assessed as reduction in colony forming units per lung at 100 mg/kg administered via gavage for 2 days measured last post dose; type: functional
[9] = test system: Mycobacterium tuberculosis; assay: Antimycobacterial activity against Mycobacterium tuberculosis H37Rv ATCC 27294 measured after 5 to 8 days; type: functional
[10] = test system: Mycobacterium tuberculosis; assay: Growth inhibition of Mycobacterium tuberculosis H37Rv ATCC 27294 measured after 5 to 8 days; type: functional
[11] = test system: Mycobacterium tuberculosis; assay: Antimycobacterial activity against Mycobacterium tuberculosis H37Rv after 5 days by microplate alamar blue assay; type: functional; settings: 120 h
[12] = test system: Mycobacterium tuberculosis; assay: Antitubercular activity against Mycobacterium tuberculosis H37Rv; type: functional
[13] = Inhibition of DNA gyrase (unknown origin)
[14] = test system: Mycobacterium tuberculosis; assay: Antimycobacterial activity against Mycobacterium tuberculosis H37Rv by NCCLS method; type: functional
[15] = test system: Mycobacterium tuberculosis; assay: Potency index, ratio of pyrazinamide MIC to compound MIC for Mycobacterium tuberculosis H37Rv; type: functional
[16] = test system: Mycobacterium tuberculosis; assay: Antitubercular activity against Mycobacterium tuberculosis H37Rv after 10 days by tube dilution method; type: functional; settings: 240 h
[17] = test system: Mycobacterium tuberculosis; assay: Antimycobacterial activity against Mycobacterium tuberculosis H37Rv ATCC 27294 at < 0.1 ug/mL by microplate alamar blue assay; type: functional
[18] = test system: Mycobacterium avium; assay: Antimycobacterial activity against Mycobacterium avium 330/88 measured after 14 to 21 days by micromethod; type: functional
[19] = test system: Mycobacterium tuberculosis; assay: Antimycobacterial activity against Mycobacterium tuberculosis 331/88 after 14 to 21 days by micromethod; type: functional
[20] = test system: Mycobacterium tuberculosis; assay: Antimycobacterial activity against Mycobacterium tuberculosis H37Rv after 10 to 12 days by serial dilution method; type: functional
[21] = test system: Mycobacterium tuberculosis; assay: Antimycobacterial activity against human sensitive Mycobacterium tuberculosis measured after six weeks; type: functional
[22] = test system: Mycobacterium tuberculosis; assay: Antimycobacterial activity against Bovin sensitive Mycobacterium tuberculosis measured after six weeks; type: functional

**Q.** For `Cc1ccc(C)n1NC(=O)c1ccccc1`, which MIC [1] is on record?
**A.** The MIC was 3.2 µg/mL (≈ 14.9 µM).

**Q.** What about the MIC [2] of the same molecule?
**A.** The MIC was 4 to 8 µg/mL (≈ 18.7 to 37.3 µM).

**Q.** And the Ratio [3]?
**A.** The Ratio was 2.

**Q.** What about the Ratio [4] of the same molecule?
**A.** Its Ratio is 2.

**Q.** And the MIC [5]?
**A.** The MIC was 4 to 8 µg/mL (≈ 18.7 to 37.3 µM).

**Q.** What about the Ratio [6] of the same molecule?
**A.** The Ratio was 2.

**Q.** And the MIC [7]?
**A.** Its MIC is 4 to 8 µg/mL (≈ 18.7 to 37.3 µM).

**Q.** And the Activity [8]?
**A.** The Activity was 1.5 log10CFU.

**Q.** For `CCn1cc(C(=O)O)c(=O)c2cc(F)c(N3CCN(CN4C(=O)/C(=N\NC(=O)c5ccncc5)c5cc(Cl)ccc54)CC3)cc21`, which MIC [9] is on record?
**A.** Its MIC is 6.25 to 12.5 µg/mL (≈ 9.89 to 19.8 µM).

**Q.** What about the “growth inhibition (GI)” value [10] of the same molecule?
**A.** Its value is 99%.

**Q.** Which MIC [11] does the source give for `O=C(NN1C(=O)C(Cl)C1c1ccccc1O)c1ccncc1` (centres undefined) here?
**A.** Its MIC is 0.62 µg/mL (≈ 1.95 µM).

**Q.** Which MIC [11] does the source give for `COc1cc(C2C(Cl)C(=O)N2NC(=O)c2ccncc2)ccc1O` (centres undefined) here?
**A.** Its MIC is 0.31 µg/mL (≈ 0.891 µM).

**Q.** Which MIC [11] does the source give for `O=C(NN1C(=O)C(Cl)C1c1ccc([N+](=O)[O-])cc1)c1ccncc1` (centres undefined) here?
**A.** The MIC was 5 µg/mL (≈ 14.4 µM).

**Q.** Which MIC [12] does the source give for `O=C(NN1C(=O)C(Cl)C1c1cc2cc(Br)ccc2nc1Cl)c1ccncc1` (centres undefined) here?
**A.** Its MIC is 12.5 µg/mL.

**Q.** Which MIC [12] does the source give for `C/C(=N\NC(=O)c1ccncc1)c1ccc(N)cc1` here?
**A.** The MIC was 0.23 µM.

**Q.** With `COc1c(N2CCN(CN3C(=O)/C(=N\NC(=O)c4ccncc4)c4ccccc43)C(C)C2)c(F)cc2c(=O)c(C(=O)O)cn(C3CC3)c12` (centres undefined) as the molecule, how does the MIC [12] read?
**A.** The MIC was 0.2 µg/mL.

**Q.** And the IC50 [13]?
**A.** Its IC50 is 4 µg/mL (≈ 6.12 µM).

**Q.** With `Cc1c(C(=O)NNC(=O)c2ccncc2)nn(-c2ccc(Cl)cc2Cl)c1-c1ccccc1` as the molecule, how does the MIC [14] read?
**A.** The MIC was 25 µg/mL (≈ 53.6 µM).

**Q.** And the Ratio [15]?
**A.** Its Ratio is 4.

**Q.** With `COc1nc2ccccc2cc1C1C(Cl)C(=O)N1NC(=O)c1ccncc1` (centres undefined) as the molecule, how does the MIC [12] read?
**A.** Its MIC is 3.12 to 6.25 µg/mL.

**Q.** For `CCC(CO)Nc1nc(Cl)nc(NNC(=O)c2ccncc2)n1` (centres undefined), which MIC [16] is on record?
**A.** The MIC was 20 µg/mL (≈ 59.2 µM).

**Q.** For `C[C@]12CC/C(=N\NC(=O)c3ccncc3)C[C@@H]1CC[C@@H]1[C@@H]2CC[C@]2(C)/C(=N/NC(=O)c3ccncc3)CC[C@@H]12`, which “inhibition (INH)” value [17] is on record?
**A.** The value was >95%.

**Q.** Which MIC [18] does the source give for `CCCCCCCCc1ccc(NC(=O)NNC(=O)c2ccncc2)cc1` here?
**A.** The MIC was 1 to 2 µM (≈ 0.368 to 0.737 µg/mL).

**Q.** What about the MIC [19] of the same molecule?
**A.** The MIC was 1 to 2 µM (≈ 0.368 to 0.737 µg/mL).

**Q.** Which MIC [20] does the source give for `C[C@]12CC[C@H]3[C@@](CC[C@@H]4[C@]3(C)CCC[C@@]4(C)C(=O)O)(CC1=O)C2` here?
**A.** Its MIC is 50 µg/mL (≈ 157 µM).

**Q.** For `COc1ccc(C2C(Cl)C(=O)N2NC(=O)c2ccncc2)cc1` (centres undefined), which MIC [11] is on record?
**A.** The MIC was 0.31 to 5 µg/mL (≈ 0.934 to 15.1 µM).

**Q.** Which MIC [21] does the source give for `C=CCN1C(=O)/C(=N\NC(=O)c2ccncc2)c2ccccc21` here?
**A.** Its MIC is 2.7 to 3.5 µg/mL (≈ 8.81 to 11.4 µM).

**Q.** And the MIC [22]?
**A.** The MIC was 2.7 to 3.5 µg/mL (≈ 8.81 to 11.4 µM).

**Q.** For `C=C1C[C@]23CC[C@@H]4[C@](C)(CCC[C@@]4(C)C(=O)NNc4ccncc4)[C@H]2CC[C@]1(O[C@@H]1O[C@H](COC(C)=O)[C@@H](OC(C)=O)[C@H](OC(C)=O)[C@H]1O[C@@H]1O[C@H](COC(C)=O)[C@@H](OC(C)=O)[C@H](OC(C)=O)[C@H]1O)C3`, which MIC [20] is on record?
**A.** The MIC was 5 µg/mL (≈ 5.07 µM).

**Q.** Which MIC [12] does the source give for `COc1nc2ccc(Br)cc2cc1C1C(Cl)C(=O)N1NC(=O)c1ccncc1` (centres undefined) here?
**A.** Its MIC is 3.12 to 6.25 µg/mL.

**Q.** With `O=C(NN1C(=O)C(Cl)C1c1ccco1)c1ccncc1` (centres undefined) as the molecule, how does the MIC [11] read?
**A.** The MIC was 1.25 µg/mL (≈ 4.29 µM).

**Q.** Which MIC [12] does the source give for `O=C(NN1C(=O)C(Cl)C1c1cc2cc(Cl)ccc2nc1Cl)c1ccncc1` (centres undefined) here?
**A.** The MIC was 12.5 µg/mL.

**Q.** With `O=C(CNNC(=O)c1ccncc1)COc1ccc(/C=C2\SC(=O)NC2=O)cc1` as the molecule, how does the MIC [12] read?
**A.** Its MIC is 50 to 100 µg/mL.

**Q.** Which MIC [20] does the source give for `C=C1C[C@]23CC[C@@H]4[C@](C)(CCC[C@@]4(C)C(=O)O[C@@H]4O[C@H](CO)[C@@H](O)[C@H](O)[C@H]4O)[C@H]2CC[C@]1(O[C@@H]1O[C@H](CO)[C@@H](O)[C@H](O)[C@H]1O[C@@H]1O[C@H](CO)[C@@H](O)[C@H](O)[C@H]1O)C3` here?
**A.** The MIC was 7.5 µg/mL (≈ 9.32 µM).

— ChEMBL document CHEMBL4052616, “Isoniazid derivatives and their anti-tubercular activity” (Eur J Med Chem, 2017)
